According to publication PMC3433414, “Oral Administration of the Pimelic Diphenylamide HDAC Inhibitor HDACi 4b Is Unsuitable for Chronic Inhibition of HDAC Activity in the CNS In Vivo” (PLoS ONE, 2012):

Key:
Class IIa/HDAC8 HDACs = assay: Cellular HDAC assay, Boc_Lys_TFA substrate, Jurkat E6.1 cells; type: cell-based; details: up to 50 µM
Experimental: Briefly, Jurkat E6.1 cells (obtained from the European Collection of Cell Cultures (ECACC)) were plated into 384 well plates at 75,000 cells/well in cellular assay buffer (RPMI without phenol red, 0.1% Fetal Bovine Serum, 10 mM HEPES, 1 mM Sodium Pyruvate). Compounds of interest were diluted in assay buffer (16-point concentration curve, 1% final DMSO) and were added to wells - unless stated otherwise in the results section - for a 2 h preincubation at 37°C prior to the addition of either 100 µM Boc_Lys_TFA or Boc_Lys_Ac. Cells were incubated for a further 3 h at 37°C, followed by the addition of a trypsin (1 mg/ml) and reference compound (Compound 26 or TSA) stop-step overnight to terminate the reaction and lyse the cells. Fluorescent counts were read the following morning on the Perkin Elmer EnVision. Z’ was 0.8 for both assays, with S:B of 19 for Boc_Lys_Ac assay, and 7 for Boc_Lys_TFA assay.
Each compound was tested in duplicate in concentration-response format on 3 separate days. For both biochemical and cellular assays, data is presented as % inhibition from maximal activity (maximal fluorescence response), which was defined as the fluorescence read in the presence of 1% DMSO, with 100% inhibition defined as the fluorescence read in the presence of substantial excess of the respective reference compounds (5 µM TSA, 50 µM Compound 26 depending on target). […]

[1] = Chemical stability in formulation or solution; type: physicochemical; details: free base; LC-MS day 1 and after 7 days; with or without heating
Experimental: Thomas and colleagues reported that a solution of 4b at 1 mg/mL was previously obtained using this procedure. […] We therefore prepared both TFA and hydrochloride (HCl) salts of 4b to establish whether they could offer improved solubility. Neither salt form of 4b was particularly soluble in water (<1 mg/ml). […] A study of the stability of the TFA salt also raised another more worrying issue in the use of 2-hydroxypropyl-β-cyclodextrin–complexed 4b salts for potential in vivo studies. […] The 4b. […] The lower than expected initial quantification of 4b was most likely due to the TFA salt rapidly degrading upon heating. Indeed, we always found the presence of the cyclised benzimidazole conversion product, named throughout as product C1, in the salt formulations even at t = 0 after preparation. Furthermore, the suspension was not stable upon standing in the dark with gentle shaking at room temperature, with a further 28% decrease observed in parent (4b) concentration on day 7 analysis, compared to day 1.
According to Thomas et al, verification of an acute pharmacodynamic response (the reversal of transcriptional dysregulation in the R6/2 model) was achieved by the repeated once daily injection of 150 mg/kg 4b in 50∶50 DMSO: PBS for three consecutive days. […] The lack of any pharmacodynamic response predictive of central Class I HDAC inhibition when 4b was dosed orally at 150 mg/kg twice daily for 5 days confirmed this prediction.

HDACs = assay: Biochemical HDAC assays (whole panel); design: species or system human; details: up to 50 µM
Excerpt: To assess the biochemical and cellular potency of 4b and its conversion products/metabolites, we utilized the two-step fluorogenic assay which measures the HDAC-mediated catalytic conversion of synthetic acetylated lysine substrates. In brief, on deacetylation of the substrates by HDAC activity, a protease site is unmasked which allows subsequent trypsin-mediated cleavage and release of the highly flourescent AMC molecules in a subsequent step of the assay. The substrates used were Lys_Ac_AMC (Bachem I-1875) for HDAC3 and (Ac)Arg-Gly-Lys(Ac) (Bachem I-1925) for HDAC1 and HDAC2. […] However, the relatively labile and sterically more demanding trifluoracetyl group is readily hydrolyzed by the catalytically less avid Class IIa enzymes, allowing measurement of Class IIa activity using the 2-step fluorogenic assay. […]
For evaluation of the class selectivity of the compounds, we assessed inhibition against purified recombinant human full length HDAC1 (cat# 50051), HDAC2 (cat# 50052), HDAC3-NcoR2 (cat# 50003) and HDAC8 (cat# 50008): as representative of Class I activity; catalytic domain HDAC4(αα 648–1057), HDAC5 (αα 657–1123; cat # 50005), HDAC7 (αα 518-end; cat # 50007) and HDAC9 (αα 604–1066; cat # 50009) activity: representing all Class IIa activity; and full length HDAC6 (cat#50006): representing Class IIb activity. […]

SMILES	cellular inhibition, Class IIa/HDAC8 substrate (Class IIa/HDAC8 HDACs)	degradation in cyclodextrin suspension [1]	activity in the biochemical HDAC assays (HDACs)
Nc1ccccc1NC(=O)CCCCCC(=O)Nc1ccccc1 [Compound 4b]	no inhibition	no degradation	–
O=C(CCCCCc1nc2ccccc2[nH]1)Nc1ccccc1 [Compound C1, 6-(1-H-benzo[d]imidazol-2-yl)-N-phenylhexanamide]	–	–	no activity
